Data reported in patent US11034696B2, “Compounds for inhibiting LRRK2 kinase activity” (GLAXOSMITHKLINE INTELLECTUAL PROPERTY DEVELOPMENT LIMITED, priority 2017, dated 2021).
Several values for one entry are separate records, joined by “and”; a condition that tells them apart may be missing. Identical values can stand only once.

Biological target: T1, LRRK2 (Homo sapiens, UniProt Q5S007)
T1 construct: A BacMam virus expressing full length recombinant LRRK2 was purchased from Invitrogen; host or cells: SH-SY5Y human neuroblastoma cells transduced with BacMam LRRK2 virus
T1 sequence (Q5S007 whole entry): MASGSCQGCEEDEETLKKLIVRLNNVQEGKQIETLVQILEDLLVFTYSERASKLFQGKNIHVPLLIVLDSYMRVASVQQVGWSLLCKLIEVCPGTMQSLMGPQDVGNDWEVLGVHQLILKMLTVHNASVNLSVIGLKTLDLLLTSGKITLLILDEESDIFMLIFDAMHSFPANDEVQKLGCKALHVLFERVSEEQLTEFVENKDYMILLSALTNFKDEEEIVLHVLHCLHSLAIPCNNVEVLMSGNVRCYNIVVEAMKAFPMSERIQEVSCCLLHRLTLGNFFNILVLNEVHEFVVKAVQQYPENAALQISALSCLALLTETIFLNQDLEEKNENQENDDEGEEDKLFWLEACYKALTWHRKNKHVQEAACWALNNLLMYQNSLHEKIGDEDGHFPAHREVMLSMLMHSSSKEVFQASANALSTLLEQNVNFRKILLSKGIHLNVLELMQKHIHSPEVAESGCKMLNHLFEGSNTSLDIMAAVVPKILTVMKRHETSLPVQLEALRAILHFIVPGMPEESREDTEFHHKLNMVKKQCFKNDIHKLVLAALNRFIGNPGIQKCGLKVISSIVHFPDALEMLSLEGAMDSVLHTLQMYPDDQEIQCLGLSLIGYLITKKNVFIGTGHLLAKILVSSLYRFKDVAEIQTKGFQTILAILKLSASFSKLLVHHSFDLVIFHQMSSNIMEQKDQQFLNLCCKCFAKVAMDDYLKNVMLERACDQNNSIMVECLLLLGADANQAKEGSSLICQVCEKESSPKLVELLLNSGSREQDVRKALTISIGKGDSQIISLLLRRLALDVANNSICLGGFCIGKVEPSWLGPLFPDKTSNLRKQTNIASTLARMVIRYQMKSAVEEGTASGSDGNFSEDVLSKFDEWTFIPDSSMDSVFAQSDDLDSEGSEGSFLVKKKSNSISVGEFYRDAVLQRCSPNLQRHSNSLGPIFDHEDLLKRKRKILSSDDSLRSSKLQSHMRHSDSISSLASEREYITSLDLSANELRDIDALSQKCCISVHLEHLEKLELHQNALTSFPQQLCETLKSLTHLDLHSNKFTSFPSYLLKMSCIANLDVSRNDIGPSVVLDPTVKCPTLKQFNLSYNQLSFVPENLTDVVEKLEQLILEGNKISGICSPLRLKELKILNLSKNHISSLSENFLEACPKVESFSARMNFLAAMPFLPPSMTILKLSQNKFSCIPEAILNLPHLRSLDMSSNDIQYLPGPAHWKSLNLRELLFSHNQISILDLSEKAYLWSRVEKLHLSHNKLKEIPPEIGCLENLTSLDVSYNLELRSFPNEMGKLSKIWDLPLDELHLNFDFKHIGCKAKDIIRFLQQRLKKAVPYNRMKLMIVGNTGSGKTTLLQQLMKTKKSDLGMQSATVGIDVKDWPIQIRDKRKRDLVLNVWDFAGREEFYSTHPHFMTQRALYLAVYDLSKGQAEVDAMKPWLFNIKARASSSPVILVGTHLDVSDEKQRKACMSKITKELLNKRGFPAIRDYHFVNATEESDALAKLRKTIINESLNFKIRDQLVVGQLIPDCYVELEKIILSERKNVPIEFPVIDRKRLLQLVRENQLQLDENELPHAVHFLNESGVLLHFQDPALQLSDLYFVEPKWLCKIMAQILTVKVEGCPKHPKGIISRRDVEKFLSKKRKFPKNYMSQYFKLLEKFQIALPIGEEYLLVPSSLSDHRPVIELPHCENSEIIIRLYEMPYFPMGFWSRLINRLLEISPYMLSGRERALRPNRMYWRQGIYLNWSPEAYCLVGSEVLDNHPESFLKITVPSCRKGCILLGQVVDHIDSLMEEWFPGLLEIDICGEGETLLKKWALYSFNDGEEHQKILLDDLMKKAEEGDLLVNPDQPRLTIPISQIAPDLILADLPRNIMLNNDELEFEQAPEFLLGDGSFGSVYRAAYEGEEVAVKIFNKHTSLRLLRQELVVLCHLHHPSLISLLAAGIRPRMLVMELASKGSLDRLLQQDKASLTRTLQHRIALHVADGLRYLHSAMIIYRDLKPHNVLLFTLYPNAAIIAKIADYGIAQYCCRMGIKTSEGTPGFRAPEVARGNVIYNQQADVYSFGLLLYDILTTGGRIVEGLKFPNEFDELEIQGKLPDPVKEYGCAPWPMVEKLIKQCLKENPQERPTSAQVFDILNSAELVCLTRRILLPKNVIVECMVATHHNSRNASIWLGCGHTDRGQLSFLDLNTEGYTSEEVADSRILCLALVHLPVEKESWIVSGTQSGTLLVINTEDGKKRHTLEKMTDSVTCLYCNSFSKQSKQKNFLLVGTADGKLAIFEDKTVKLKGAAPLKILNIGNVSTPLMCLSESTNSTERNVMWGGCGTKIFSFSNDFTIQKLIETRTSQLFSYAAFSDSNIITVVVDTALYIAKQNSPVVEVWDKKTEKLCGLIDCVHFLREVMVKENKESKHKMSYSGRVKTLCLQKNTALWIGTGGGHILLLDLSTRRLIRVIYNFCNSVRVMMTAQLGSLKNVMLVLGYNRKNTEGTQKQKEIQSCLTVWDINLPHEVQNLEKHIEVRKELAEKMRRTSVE
Assay: Recombinant cellular LRRK2 AlphaScreen assay (LRRK2 Ser935 phosphorylation in SH-SY5Y cells over-expressing recombinant full length LRRK2)
Type: cell-based
Settings: 60 minutes compound incubation, read-out: pIC50 in the recombinant cellular LRRK2 AlphaScreen assay (converted)
Excerpt: 2) Recombinant Cellular LRRK2 AlphaScreen Assay
To determine the activity of compounds against LRRK2 kinase activity in cells, the observed LRRK2 kinase-dependent modulation of LRRK2 Ser 935 phosphorylation (Dzamko et al., 2010, Biochem. J. 430: 405-413) was utilized to develop a quantitative 384 well plate-based immunoassay of LRRK2 Ser935 phosphorylation in the human neuroblastoma cell line SH-SY5Y, engineered to over-express recombinant full length LRRK2 protein.
A BacMam virus expressing full length recombinant LRRK2 was purchased from Invitrogen and amplified by inoculation of SF-9 cells at MOI 0.3 for 4-5 days in Sf-900 III SFM medium supplemented with 3% fetal bovine serum. Infected cell cultures were then centrifuged at 2000 g for 20 minutes, viral supernatant titer determined by anti-gp64 plaque assay and stored at 4° C.
Affinity-purified anti-phospho LRRK2 Ser935 sheep polyclonal antibody (Dzamko et al., 2010, Biochem. J. 430: 405-413) was biotinylated by standard methods (PerkinElmer). Anti-LRRK2 rabbit polyclonal antibody was purchased from Novus Biologicals. AlphaScreen Protein A IgG Kit (including acceptor and donor beads) was purchased from Perkin Elmer. […]
Serial dilutions of test compounds were prepared in Opti-MEM reduced serum media (Invitrogen) and 5.6 ul transferred from compound plate to cell assay plate to achieve a top final assay concentration of 10 uM. […] 10 ul of antibody/acceptor bead mix [(1/1000 biotinylated-pS935 LRRK2 antibody, 1/1000 total-LRRK2 antibody, 1/100 Acceptor beads in AlphaScreen detection buffer (25 mM Hepes (pH 7.4), 0.5% Triton X-100, 1 mg/ml Dextran 500 and 0.1% BSA)] was then added to each well and plates incubated for 2 hours at ambient temperature in the dark. 10 μl of donor beads solution (1/33.3 donor beads in AlphaScreen detection buffer) was then added to each well. Following incubation for a further 2 hours at ambient temperature in the dark, plates were read on an EnVision™ plate reader at emission 520-620 nm with excitation 680 nm. […]

IC50 | Compound
≤ 100 nM | COc1nc(N2CCN3CCC[C@H]3C2)cc(-n2ncc3cc(C)c(C4CCN(C5COC5)CC4F)cc32)n1 (single isomer, unassigned) [Example A-2]
≤ 100 nM | COc1nc(N2CCN3CCC[C@@H]3C2)cc(-n2ncc3cc(C)c(C4CCN(C5COC5)CC4F)cc32)n1 (single isomer, unassigned) [Example A-1]
7.94 nM and ≤ 100 nM | COc1nc(N2CCN3CCOCC3C2)cc(-n2ncc3cc(C)c(C4CCN(C5COC5)CC4)cc32)n1 (single isomer, unassigned) [Example A-13, 8-(2-methoxy-6-(5-methyl-6-(1-(oxetan-3-yl)piperidin-4-yl)-1H-indazol-1-yl)pyrimidin-4-yl)octahydropyrazino[2,1-c][1,4]oxazine]
